According to patent publication US20100087466A1, “NOVEL SMALL MOLECULE DNAK INHIBITORS” (priority 2008, published 2010):
Counter-ions that a name gives are not always drawn. Like-named read-outs stand apart in the source and are kept apart here. Non-standard residues stand in square brackets, D forms with d. Residues, ends and D or L forms follow the SMILES beside them. ξ: configuration not given here. *: point of attachment. Phe(4-NH2) = Nc1ccc(C[C@H](N)C(=O)O)cc1; 2Nal = N[C@@H](Cc1ccc2ccccc2c1)C(=O)O; Hydrocinnamoyl = O=C(CCc1ccccc1)*; Hyp = O=C(O)[C@@H]1C[C@@H](O)CN1; NH(CH2)3Ph = c1ccc(CCCN*)cc1; 2Pyrimidinyl = c1cnc(*)nc1; ξR = N=C(N)NCCCC(N)C(=O)O; Octanoyl = CCCCCCCC(=O)*; Orn = NCCC[C@H](N)C(=O)O; Piperidide = C1CCN(*)CC1; Cbz = O=C(OCc1ccccc1)*; Boc = CC(C)(C)OC(=O)*; Bn = c1ccc(C*)cc1; NHBu = CCCCN*

Legend:
[1] = biological target: DnaK (Escherichia coli, UniProt P0A6Y8); experiment: DnaK Inhibition Assay (DnaK induced refolding of denatured firefly luciferase); format: biochemical, E. coli; settings: DnaK 200 nM, DnaJ 100 nM, GrpE 400 nM
Protocol: Inhibition of the bacterial DnaK chaperone system may be evaluated by inhibition of the DnaK induced refolding of denatured firefly luciferase. More specifically, firefly luciferase is denatured by treatment with 8N guanidium hydrochloride at room temperature for 30 mins and then 5° C. for 1 h. After dilution into cold MOPS buffer augmented with ATP (2.5 mM) and DTT (12.5 mM) and standing for a further hour, the denatured luciferase is refolded by addition to a mixture of chaperone proteins in MOPS buffer, resulting in a reaction mixture containing denatured luciferase (24 nM), DnaK (200 nM), DnaJ (100 nM) and GrpE (400 nM). The extent of refolding is determined by addition of a luciferase substrate and measurement of the emitted chemoluminescence. In this format the substrate is the commercially available luciferase “Steady-Glo” reagent from Promega, Inc. Inhibition of DnaK induced refolding is determined by premixing the chaperone proteins with the test agent at concentrations of test agent ranging from 1-100 μg/mL. The extent of refolding is compared to that with no test reagent, and the IC50 is estimated by fitting the data to a standard sigmoidal dose-response curve.
Inhibition of the bacterial DnaK chaperone system was evaluated by inhibition of the DnaK induced refolding of denatured firefly luciferase. Firefly luciferase was denatured by treatment with 8N guanidium hydrochloride at room temperature for 30 mins and then 5° C. for 1 h. After dilution into cold MOPS buffer augmented with ATP (2.5 mM) and DTT (12.5 mM) and standing for a further hour, the denatured luciferase was refolded by addition to a mixture of chaperone proteins in MOPS buffer, resulting in a reaction mixture containing denatured luciferase (24 nM), DnaK (200 nM), DnaJ (100 nM) and GrpE (400 nM). The extent of refolding was determined by addition of a luciferase substrate and measurement of the emitted chemoluminescence. In this format the substrate is the commercially available luciferase “Steady-Glo” reagent from Promega, Inc. Inhibition of DnaK induced refolding was determined by premixing the chaperone proteins with the test agent at concentrations of test agent ranging from 1-100 μg/mL. The extent of refolding was compared to that with no test reagent, and the IC50 was estimated by fitting the data to a standard sigmoidal dose-response curve.
IC50 is defined as the concentration in μM at which 50% inhibition of DnaK induced refolding of denatured firefly luciferase occurs.

[2] = tested on: E. coli (ATCC 25922); experiment: Antibacterial activity against E. coli (MIC); format: cell-based; settings: Escherichia coli, ATCC25922
[3] = read-out: DnaK IC50(μg/ml) (converted)

DnaK, sequence (P0A6Y8 2-638): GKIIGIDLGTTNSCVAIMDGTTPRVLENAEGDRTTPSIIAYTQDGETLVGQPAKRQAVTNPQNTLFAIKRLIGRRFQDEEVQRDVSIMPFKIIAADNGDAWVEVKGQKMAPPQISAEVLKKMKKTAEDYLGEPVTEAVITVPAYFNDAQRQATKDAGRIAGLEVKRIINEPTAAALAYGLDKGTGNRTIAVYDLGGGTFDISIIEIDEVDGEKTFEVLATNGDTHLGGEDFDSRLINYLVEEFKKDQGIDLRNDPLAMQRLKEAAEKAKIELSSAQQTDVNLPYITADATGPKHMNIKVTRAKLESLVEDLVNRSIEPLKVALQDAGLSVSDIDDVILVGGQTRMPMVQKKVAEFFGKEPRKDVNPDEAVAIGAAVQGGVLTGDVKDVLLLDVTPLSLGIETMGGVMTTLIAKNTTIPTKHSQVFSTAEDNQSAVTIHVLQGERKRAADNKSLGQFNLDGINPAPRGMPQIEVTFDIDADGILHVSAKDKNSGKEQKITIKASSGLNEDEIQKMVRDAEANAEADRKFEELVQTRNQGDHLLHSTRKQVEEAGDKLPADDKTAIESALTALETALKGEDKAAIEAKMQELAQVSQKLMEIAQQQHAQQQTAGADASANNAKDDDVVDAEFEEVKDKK

Row | Compound | IC50 ([1]; read-out: DnaK IC50) [µM] | IC50 [1, 3] [µM] | MIC [2] [µg/mL]
1 | CC(=O)N[C@@H](Cc1ccc(OCc2ccccc2)cc1)C(=O)N[C@@H](CC(C)C)C(=O)N1CCC[C@H]1C(=O)N[C@@H](CCCN)C(=O)N1CCC[C@H]1C(=O)NCCCc1ccccc1 [Structure 20, Ac-Tyr(Bzl)-Leu-Pro-Orn-Pro-NH(CH2)3Ph] (Ac-Y(Bn)LP[Orn]P-{NH(CH2)3Ph}) | 16 | 20 | 
2 | CCCCCCCC(=O)N[C@@H](Cc1ccc(OCc2ccccc2)cc1)C(=O)N[C@@H](CC(C)C)C(=O)N1CCC[C@H]1C(=O)N[C@H](CCCNC(=N)N)C(=O)OC [Structure 26, Octanoyl-Tyr(Bzl)-Leu-Pro-Arg-OMe trifluoroacetate] (Octanoyl-Y(Bn)LP[dR]-OMe) | 30 | 34.7 | 32
3 | CCC(C)[C@H](NC(=O)[C@H](Cc1ccc(O)cc1)NC(C)=O)C(=O)N[C@@H](CO)C(=O)OC (stereo partly drawn) [Structure 23, Ac-Tyr-Ile-Ser-OMe] | 101 | 530 | 
4 | CC(C)C[C@H](NC(=O)[C@H](Cc1ccc(O)cc1)NC(=O)OC(C)(C)C)C(=O)N1CCC[C@H]1C(=O)N[C@@H](CCCNC(=N)N)C(=O)N1CCC[C@H]1C(=O)NCCCc1ccccc1 [Structure 12, Boc-Tyr-Leu-Pro-Arg-Pro-NH(CH2)3Ph] (Boc-YLPRP-{NH(CH2)3Ph}) | 11 | 12.8 | 
5 | CCCCCCCC(=O)N[C@@H](Cc1ccc(OCc2ccccc2)cc1)C(=O)N[C@@H](CC(C)C)C(=O)N1CCC[C@H]1C(=O)N[C@H](CCCNC(=N)N)C(=O)N1CCCCC1 [Structure 28, Octanoyl-Tyr(Bzl)-Leu-Pro-Arg-N(CH2)5 trifluoroacetate] (Octanoyl-Y(Bn)LP[dR]-Piperidide) | 13 | 14.4 | 32
6 | CCCCCCCC(=O)N[C@@H](Cc1ccc(OCc2ccccc2)cc1)C(=O)N[C@@H](CC(C)C)C(=O)N1CCC[C@H]1C(=O)NCCNC(=N)N [Structure 30, Octanoyl-Tyr(Bzl)-Leu-Pro-NH(CH2)2 NH—C(═NH)—NH2 trifluoroacetate] | 19 | 21.7 | 32
7 | CC(=O)N[C@@H](Cc1ccc(OCc2ccccc2)cc1)C(=O)N[C@@H](CC(C)C)C(=O)N1CCC[C@H]1C(=O)NCCCCN [Structure 5, Ac-Tyr(Bzl)-Leu-Pro-NH(CH2)4NH2.TFA] | 45 | 106 | 
8 | CC(=O)N[C@@H](Cc1ccc2ccccc2c1)C(=O)N[C@@H](CC(C)C)C(=O)N1CCC[C@H]1C(=O)O [Structure 9] (Ac-[2Nal]-Leu-Pro-OH) | 62 | 282 | 
9 | CCCCCCCC(=O)N[C@@H](Cc1ccc(O)cc1)C(=O)N[C@@H](CC(C)C)C(=O)N1CCC[C@H]1C(=O)N[C@H](CCCNC(=N)N)C(=O)N1CCCCC1 [Structure 27, Octanoyl-Tyr-Leu-Pro-Arg-N(CH2)5 trifluoroacetate] (Octanoyl-YLP[dR]-Piperidide) | 8 | 9.45 | 
10 | COC(=O)[C@@H]1CCCN1C(=O)[C@H](CC(C)C)NC(=O)[C@H](Cc1ccc2ccccc2c1)NC(C)=O [Structure 8, Ac-2-Nal-Leu-Pro-OMe] (Ac-[2Nal]-Leu-Pro-OMe) | 30 | 127 | 
11 | Ac-YLPRP-NH2 [Structure 1, Ac-Tyr-Leu-pro-Arg-Pro-NH2] | 58 | 67.1 | 
12 | CC(=O)N[C@@H](Cc1ccc(OCc2ccccc2)cc1)C(=O)N[C@@H](CC(C)C)C(=O)N1CCC[C@H]1C(=O)N[C@@H](CCCNc1ncccn1)C(=O)N1CCC[C@H]1C(=O)NCCCc1ccccc1 [Structure 21, Ac-Tyr(Bzl)-Leu-Pro-Orn(2-pyrimidine)-Pro-NH(CH2)3Ph] (Ac-Y(Bn)LP[Orn](2Pyrimidinyl)P-{NH(CH2)3Ph}) | 22 | 22.6 | 
13 | CCCCNC(=O)[C@@H]1CCCN1C(=O)[C@H](CCCNC(=N)N)NC(=O)[C@@H]1CCCN1C(=O)[C@H](CC(C)C)NC(=O)[C@H](Cc1ccc(O)cc1)NC(C)=O [Structure 15, Ac-Tyr-Leu-Pro-Arg-Pro-NHBu.TFA] (Ac-YLPRP-NHBu) | 24 | 39.1 | 
14 | CC(=O)N[C@@H](Cc1ccc(NC(=O)OCc2ccccc2)cc1)C(=O)N[C@@H](CC(C)C)C(=O)N1CCC[C@H]1C(=O)O [Structure 7, Ac-4-(NHCbz)Phe-Leu-Pro-OH] (Ac-[Phe(4-NH2)](Cbz)-Leu-Pro-OH) | 72 | 224 | 
15 | CCCCCCCC(=O)N[C@@H](Cc1ccc(OCc2ccccc2)cc1)C(=O)N[C@@H](CC(C)C)C(=O)N1CCC[C@H]1C(=O)N1CCCC(CNC(=N)N)C1 (stereo partly drawn) [Structure 33, Octanoyl-Tyr(Bzl)-Leu-Pro-(3-guanidinomethylpiperidine) trifluoroacetate] | 23 | 26.8 | 16
16 | CCCCCCCC(=O)N[C@@H](Cc1ccc(OCc2ccccc2)cc1)C(=O)N[C@@H](CC(C)C)C(=O)N1C[C@H](O)C[C@H]1C(=O)N[C@H](CCCNC(=N)N)C(=O)N1CCCCC1 [Structure 32, Octanoyl-Tyr(Bzl)-Leu-Hyp-ArgN(CH2)5 trifluoroacetate] (Octanoyl-Y(Bn)L[Hyp][dR]-Piperidide) | 12 | 14.2 | 64
17 | CC(C)C[C@H](NC(=O)CCc1ccccc1)C(=O)N1CCC[C@H]1C(=O)N[C@@H](CCCNC(=N)N)C(=O)N1CCCCC1 [Structure 13, Ph(CH2)2C(O)-Leu-Pro-Arg-N(CH2)5] (Hydrocinnamoyl-Leu-Pro-Arg-Piperidide) | 12 | 29.1 | 
18 | CC(=O)N[C@@H](Cc1ccc(OCc2ccccc2)cc1)C(=O)N[C@@H](CC(C)C)C(=O)N1CCC[C@H]1C(=O)N[C@@H](CCCNC(=N)N)C(=O)N1CCCCC1 [Structure 14] (Ac-Y(Bn)LPR-Piperidide) | 25 | 37.5 | 
19 | CC(=O)N[C@@H](Cc1ccc(O)cc1)C(=O)N[C@@H](CC(C)C)C(=O)N1CCC[C@H]1C(=O)N[C@@H](CCCN)C(=O)N1CCC[C@H]1C(=O)NCCCc1ccccc1 [Structure 19, Ac-Tyr-Leu-Pro-Orn-Pro-NH(CH2)3Ph] (Ac-YLP[Orn]P-{NH(CH2)3Ph}) | 40 | 60.4 | 
20 | CC(=O)N[C@@H](Cc1ccc(O)cc1)C(=O)N[C@@H](CC(C)C)C(=O)N1CCC[C@H]1C(=O)N[C@@H](CCCNC(=N)N)C(=O)N1CCC[C@H]1C(=O)NCCCc1ccccc1 [Structure 16, Ac-Tyr-Leu-Pro-Arg-Pro-NH(CH2)3Ph.TFA] (Ac-YLPRP-{NH(CH2)3Ph}) | 24 | 32.3 | 
21 | CC(=O)N[C@@H](Cc1ccc(O)cc1)C(=O)N[C@@H](CC(C)C)C(=O)N1CCC[C@H]1C(=O)N[C@@H](CCCNC(=O)OC(C)(C)C)C(=O)N1CCC[C@H]1C(=O)NCCCc1ccccc1 [Structure 18, Ac-Tyr-Leu-Pro-Orn(Boc)-Pro-NH(CH2)3Ph] (Ac-YLP[Orn](Boc)P-{NH(CH2)3Ph}) | 54 | 63.8 | 
22 | CCC(C)[C@H](NC(=O)[C@H](Cc1ccc(O)cc1)NC(C)=O)C(=O)N[C@@H](CO)C(=O)O (stereo partly drawn) [Structure 24, Ac-Tyr-Ile-Ser-OH] | 240 | 309 | 
23 | COC(=O)[C@@H]1CCCN1C(=O)[C@H](CC(C)C)NC(=O)[C@H](Cc1ccc(NC(=O)OCc2ccccc2)cc1)NC(C)=O [Structure 6, Ac-4-(NHCbz)Phe-Leu-Pro-OMe] (Ac-[Phe(4-NH2)](Cbz)-Leu-Pro-OMe) | 147 | 420 | 
24 | CC(=O)N[C@@H](Cc1ccc(O)cc1)C(=O)N[C@@H](CC(C)C)C(=O)N1CCC[C@H]1C(=O)NC(CCCNC(=N)N)C(N)=O (some centres unmarked) [Structure 34] (Ac-YLP[ξR]-NH2) |  |  | > 256
25 | CC(=O)N[C@@H](Cc1ccc(O)cc1)C(=O)N[C@@H](CC(C)C)C(=O)N1CCC[C@H]1C(=O)N[C@@H](CCCNC(=N)N)C(=O)N1CCCCC1 [Structure 4, Ac-Tyr-Leu-Pro-Arg-N(CH2)5.TFA] (Ac-YLPR-Piperidide) | 3 | 6.09 | 
26 | CC(=O)N[C@@H](Cc1ccc(OCc2ccccc2)cc1)C(=O)N[C@@H](CC(C)C)C(=O)N1CCC[C@H]1C(=O)N[C@@H](CCCNC(=O)OC(C)(C)C)C(=O)N1CCC[C@H]1C(=O)NCCCc1ccccc1 [Structure 17, Ac-Tyr(Bzl)-Leu-Pro-Orn(Boc)-Pro-NH(CH2)3Ph] (Ac-Y(Bn)LP[Orn](Boc)P-{NH(CH2)3Ph}) | 21 | 20 | 
